Experimental data: patent publication US20090186896A1, “PDE Inhibitors and Combinations Thereof for the Treatment of Urological Disorders” (Bayer HealthCare AG, priority 2005, published 2009)
Read-outs that look alike come from different tables or passages of the source.

Tests used:
[1] = system: bladder of female Guinea Pigs; details: Gillespie 2004; cited from earlier work
[2] = system: rabbit bladder strips; assay: Organ bath, isolated rabbit bladder strips pre-contracted with K+ (50 mmol/l); format: cell-based; details: for % contraction of isolated rabbit bladder strips: percentage of the pre-contraction, mean ± SEM, n = 9; for IC50: Oryctolagus cuniculus, rabbit bladder strips
Protocol: White New Zealand rabbits were anesthetized using thiopental. The urinary bladder was removed and placed in ice-cold Krebs-Henseleit buffer of following composition (in mmol/l): NaCl 112, KCl 5.9, CaCl2 2.0 MgCl2 1.2, NaH2PO4 1.2, NaHCO3 25, and glucose 11.5. Equally sized longitudinal strips of approximately 2 mm×10 mm were cut from the bladder body.
Recording of mechanical activity: The preparations were transferred to 20 ml organ baths containing Krebs-Henseleit solution equilibrated with 95% O2, 5% CO2 at 37° C. The strips were mounted between two hooks by means of two clips. For recording of isometric tension one of the hooks was connected to a force transducer which was in turn linked to an amplifier and chart recorder. The other hook was attached to a movable unit, permitting precise adjustment of preload tension. All tissues were then given a 60 min equilibration period during which they were washed and the resting tension was adjusted to 1 g every 20 min.
After the equilibration period, each experiment was started by exposing the preparation to K^+ (50 mmol/l) Krebs-Henseleit solution. The procedure was repeated 3 times and the tissues were washed at least tree times between each contraction.
The bladder strips were than pre-contracted using K^+ (50 mmol/l) Krebs-Henseleit solution. When the contraction was stabilized, an accumulative dose response curve of the compound tested was constructed. The stabilized contraction induced by K^+ (50 mmol/l) Krebs-Henseleit solution was defined as 100% tension. The relaxation was expressed as percentage tension.
Effects of PDE5 and PDE4 inhibitors on isolated rabbit bladder strips: The effects of the PDE5 inhibitor vardenafil and the PDE4 inhibitor Roflumilast on the relaxation the bladder smooth muscle was tested in the organ bath using rabbit bladder strips. Both compounds were tested in the concentration from 10^−9 mol/l to 10^−5 mol/l (FIG. 4, Tab. 2). […] (Table 2)

[3] = system: BOO rats; assay: Conscious cystometry in rat bladder outlet obstruction (BOO) model, non voiding contractions; format: in vivo; details: i.v.
Protocol: All animal experiments were performed due to the “German Law for the Protection of Laboratory animals” and were conducted due to the approved guidelines of the permission “Tierversuchsvorhaben No 401/A01 M010/M011 vom Sep. 7, 2004”. Experiments were performed with female Sprague Dawley Rats with a body weight between 200-250 g.
Bladder Outlet Obstruction: For the bladder outlet obstruction, rats were anesthetized with a mixture of 1.5-2% isoflurane in a carrier of 66% N2O 33% O2. The abdomen was shaved, opened by a lower midline incision, bladder and urethra were identified and the urethravesical junction was exposed. A 1.0 mm metal rod was placed along the proximal urethra and a 6-0 nylon ligature was tied tightly around the urethra and the rod. The rod was consecutively removed and the abdomen was closed by a silk ligature and cleaned up by 70% ethanol. […]
Conscious cystometry: For cystometry the animals were shortly anaesthetized by isoflurane as described above, placed in a Ballman's cage and fixed. […] The efficacy of treatment was quantified via calculation of the non voiding contractions per micturition interval before and after treatment. […]
Statistical analysis of results: Data are expressed as means±standard error of the means (SEM), and n indicating the number of experiments. The significance of differences between means was determined by paired and unpaired Student's t-test. […]

[4] = system: rat bladder strips; assay: Organ bath, isolated rat bladder strips pre-contracted with K+ (50 mmol/l); format: cell-based; details: for Bladder (% contraction): percentage of the pre-contraction, mean ± SEM, n = 9
Description: Tissue preparation: Male Wistar rats (200-300 g) were euthanized using carbon dioxide. The tissues were removed and placed in ice-cold Krebs-Henseleit buffer of following composition (in mmol/l): NaCl 112, KCl 5.9, CaCl2 2.0 MgCl2 1.2, NaH2PO4 1.2, NaHCO3 25, glucose 11.5. Four equally sized longitudinal strips of approximately 2 mm×10 mm were cut from the bladder body. Prostate strips were obtained by cutting transversally through the lobes of the prostate gland parallel to the urethra. One ring per animal was dissected from the proximal part of the urethra. Recording of mechanical activity: The preparations were transferred to 20 ml organ baths containing Krebs-Henseleit solution equilibrated with 95% O2, 5% CO2 at 37° C. The strips were mounted between two hooks by means of two clips. For recording of isometric tension one of the hooks was connected to a force transducer which was in turn linked to an amplifier and chart recorder. The other hook was attached to a movable unit, permitting precise adjustment of preload tension. All tissues were then given a 60 min equilibration period during which they were washed and the resting tension was adjusted to 1 g every 20 min. After the equilibration period, each experiment was started by exposing the preparation to K^+ (50 mmol/l) Krebs-Henseleit solution. The procedure was repeated 3 times and the tissues were washed at least tree times between each contraction. The bladder strips were than pre-contracted using K^+ (50 mmol/l) Krebs-Henseleit solution. When the contraction was stabilized, an accumulative dose response curve of the compound tested was constructed. The stabilized contraction induced by K^+ (50 mmol/l) Krebs-Henseleit solution was defined as 100% tension. The relaxation was expressed as percentage tension. Organ bath assay: effects of Vardenafil on isolated rat urogenital organs: The effects of the PDE5 inhibitor Vardenafil on the relaxation of smooth muscles were tested in the organ bath system. The compound was applied in the concentration range from 10^−8 mol/l to 10^−5 mol/l (FIG. 3, Table 1).

[5] = system: rat urethral rings; assay: Organ bath, isolated rat urethral rings pre-contracted with phenylephrine; format: cell-based; details: for Urethra (% contraction): percentage of the pre-contraction, mean ± SEM, n = 9
Description: (§1) Tissue preparation: Male Wistar rats (200-300 g) were euthanized using carbon dioxide. The tissues were removed and placed in ice-cold Krebs-Henseleit buffer of following composition (in mmol/l): NaCl 112, KCl 5.9, CaCl2 2.0 MgCl2 1.2, NaH2PO4 1.2, NaHCO3 25, glucose 11.5. Four equally sized longitudinal strips of approximately 2 mm×10 mm were cut from the bladder body. Prostate strips were obtained by cutting transversally through the lobes of the prostate gland parallel to the urethra. One ring per animal was dissected from the proximal part of the urethra. Recording of mechanical activity: The preparations were transferred to 20 ml organ baths containing Krebs-Henseleit solution equilibrated with 95% O2, 5% CO2 at 37° C. The strips were mounted between two hooks by means of two clips. For recording of isometric tension one of the hooks was connected to a force transducer which was in turn linked to an amplifier and chart recorder. The other hook was attached to a movable unit, permitting precise adjustment of preload tension. All tissues were then given a 60 min equilibration period during which they were washed and the resting tension was adjusted to 1 g every 20 min. After the equilibration period, each experiment was started by exposing the preparation to K^+ (50 mmol/l) Krebs-Henseleit solution. The procedure was repeated 3 times and the tissues were washed at least tree times between each contraction. Prostatic strips and urethral rings were pre-contracted using 10^−6 mol/l phenylephrine. The effects of the compounds on the prostate tissue were tested in a non-cumulative manner with washing steps between each concentration. Organ bath assay: effects of Vardenafil on isolated rat urogenital organs: The effects of the PDE5 inhibitor Vardenafil on the relaxation of smooth muscles were tested in the organ bath system. The compound was applied in the concentration range from 10^−8 mol/l to 10^−5 mol/l (FIG. 3, Table 1).

[6] = system: rat prostate strips; assay: Organ bath, isolated rat prostate strips pre-contracted with phenylephrine; format: cell-based; details: for Prostate (% contraction): percentage of the pre-contraction, mean ± SEM, n = 9
Description: as §1

[7] = system: CYP-treated rats; assay: Anaesthetized cystometry, micturition interval in CYP-treated rats (overactive bladder); format: in vivo, rat; details: i.v.
Protocol: All animal experiments were performed due to the “German Law for the Protection of Laboratory animals” and were conducted due to the approved guidelines of the permission “Tierversuchsvorhaben No 401/A01 M010/M011 vom Sep. 7, 2004”. Experiments were performed with female Sprague Dawley Rats with a body weight between 200-250 g. Anaesthetized cystometry: For cystometry female SD rats were anaesthetized with urethane (1.2 g/kg, ip). After laparotomy, the bladder was exposed and both ureters were ligated and cut. A polyethylene cannula (PE50) was implanted into the bladder dome, and the abdomen was closed. The bladder catheter was connected to the t-shaped tube to connect a infusion pump (Perfusor® compact; Braun Melsungen) for continuous infusion of saline solution and to connect a pressure transducer (Combitrans; Braun Melsungen) for measurement of intrabladder pressure. The intrabladder pressure signals were registered with the Powerlab System (MLT0698, ADInstrument). […] The effect of treatments was calculated on the micturition interval (corresponding to bladder capacity). […]
Statistical analysis of results: Data are expressed as means i standard error of the means (SEM), and n indicating the number of experiments. The significance of differences between means was determined by paired and unpaired Student's t-test. […]

[8] = system: human prostate tissue; details: in vitro; Ückert 2001; cited from earlier work
[9] = read-out: IC50, relaxation of bladder strips

## CC(C)Cn1c(=O)n(C)c(=O)c2[nH]cnc21 [IBMX]
[1]
  relaxation of bladder: could relax

## O=C(Nc1c(Cl)cncc1Cl)c1ccc(OC(F)F)c(OCC2CC2)c1 [Roflumilast]
[2]; 0.001 μmol/l
  % contraction of isolated rabbit bladder strips: 100.8 ± 0.6%
[2]; 0.01 μmol/l
  % contraction of isolated rabbit bladder strips: 90.1 ± 1.7%
[2]; 0.1 μmol/l
  % contraction of isolated rabbit bladder strips: 75.1 ± 2.1%
[2]; 1 μmol/l
  % contraction of isolated rabbit bladder strips: 55.8 ± 2.5%
[2]; 10 μmol/l
  % contraction of isolated rabbit bladder strips: 40.9 ± 3.3%
[2]; [9]
  IC50: 0.26 µM
[2]; read-out: IC50, relaxing effects on rabbit bladder strips
  IC50: 0.26 µM

## CCCc1nc(C)c2c(=O)[nH]c(-c3cc(S(=O)(=O)N4CCN(CC)CC4)ccc3OCC)nn12 [Vardenafil, 2-(2-Ethoxy-5-(4-ethylpiperazin-1-yl-1-sulfonyl)phenyl)-5-methyl-7-propyl-3H-imidazo (5,1-f) (1,2,4)triazin-4-one]
[2]; 0.001 μmol/l
  % contraction of isolated rabbit bladder strips: 100.9 ± 1.0%
[2]; 0.01 μmol/l
  % contraction of isolated rabbit bladder strips: 99.9 ± 0.9%
[2]; 0.1 μmol/l
  % contraction of isolated rabbit bladder strips: 95.7 ± 1.7%
[2]; 1 μmol/l
  % contraction of isolated rabbit bladder strips: 76.3 ± 3.7%
[2]; 10 μmol/l
  % contraction of isolated rabbit bladder strips: 9.6 ± 12.6%
[2]; [9]
  IC50: 1.7 µM
[3]
  MED, significant reduction of non voiding contractions (NVC): 3 mg/kg
[4]; 0.001 μmol/l
  Bladder (% contraction): 94.3 ± 0.9%
[4]; 0.01 μmol/l
  Bladder (% contraction): 91.2 ± 1.3%
[4]; 0.1 μmol/l
  Bladder (% contraction): 89.9 ± 1.8%
[4]; 1 μmol/l
  Bladder (% contraction): 77.8 ± 2.1%
[4]; 10 μmol/l
  Bladder (% contraction): 25.3 ± 3.2%
[4]; rat bladder strips, read-out: EC50, relaxation of bladder strips
  EC50: 5 µM
[5]; 0.001 μmol/l
  Urethra (% contraction): 88.4 ± 2.4%
[5]; 0.01 μmol/l
  Urethra (% contraction): 88.5 ± 2.1%
[5]; 0.1 μmol/l
  Urethra (% contraction): 77.1 ± 3.9%
[5]; 1 μmol/l
  Urethra (% contraction): 44.9 ± 1.5%
[5]; 10 μmol/l
  Urethra (% contraction): 3.5 ± 1.7%
[5]; rat urethral rings, read-out: EC50, relaxation of urethral rings
  EC50: 0.96 µM
[6]; 0.1 μmol/l
  Prostate (% contraction): 99.2 ± 3.0%
[6]; 1 μmol/l
  Prostate (% contraction): 76.0 ± 2.3%
[6]; 10 μmol/l
  Prostate (% contraction): 25.3 ± 3.2%
[6]; rat prostate strips, read-out: EC50, relaxation of prostate strips
  EC50: 1.1 µM
[7]
  MED, significant increase of micturition interval: 3 mg/kg

## CCCOc1ccccc1-c1nc2nn[nH]c2c(=O)[nH]1 [Zaprinast]
[8]
  relaxation of pre-contracted human prostate tissue: able to relax
[1]
  relaxation of bladder: ineffective
